{"source": "patent US20260166121A1", "about": "“COMPOSITIONS AND METHODS FOR THE TREATMENT OF HEMORRHAGIC SHOCK” (Children's Hospital Medical Center, priority 2022, published 2026)", "key": {"[1]": {"test_system": "AMPKα1 wild-type (WT) and knockout (KO) mice", "assay": "Lung histopathologic analysis after hemorrhagic shock", "format": "in vivo", "details": "100 μg/kg intra-arterially, 3 h after resuscitation", "text": "(§1) Murine model of hemorrhagic shock. The experiments conformed to the Guide for the Care and Use of Laboratory Animals published by the US National Institutes of Health (Eighth edition, 2011) and had the approval of the Institutional Animal Care and Use Committee. Homozygous AMPKα1 wild-type (WT) and AMPKα1 knockout (KO) mice were established on a C57/BL6 genetic background by the crossbreeding (>10 generations) of a breeding pair provided by Dr. Benoit Viollet of the University of Paris Descartes (Paris, France). For these experiments, female AMPKα1 WT and KO mice were generated by a breeding scheme utilizing heterozygous mutant mice. Female mice were used at random stages of the estrous cycle at the age of 3 to 5 months and assigned to the different experimental groups after routine genotyping by quantitative polymerase chain reaction. All mice were allowed free access to water and a maintenance diet in a 12-h light/dark cycle, with room temperature at 21±2° C. Mice were anesthetized with pentobarbital (80 mg/kg) intraperitoneally and prepared for hemorrhagic shock, as previously described. […] Mice were monitored for 3 hours after resuscitation for cardiovascular parameters. […]\nHistopathologic analysis. […] Sections were stained with hematoxylin and eosin and evaluated by an independent observer blinded to the treatment groups. […]"}, "[2]": {"test_system": "AMPKα1 wild-type (WT) and knockout (KO) mice", "assay": "Plasma levels of cytokines (multiplex array) after hemorrhagic shock", "format": "in vivo", "details": "AMPKα1 WT or KO mice; 100 μg/kg intra-arterially; 3 h after resuscitation", "text": "as §1, with “C.” for “C. Mice were anesthetized with pentobarbital (80 mg/kg) intraperitoneally and prepared for hemorrhagic shock, as previously described.”\nPlasma levels of cytokines. Plasma levels of interleukin (IL)-1β, IL-6, IL-10, IL-17, keratinocyte-derived chemokine (KC), and tumor necrosis factor-α (TNFα) were evaluated by a commercially available multiplex array system (Linco-Research, St. Charles, MO) using the protocol recommended by the manufacturer."}, "[3]": {"test_system": "AMPKα1 wild-type (WT) and knockout (KO) mice", "assay": "Lung myeloperoxidase assay (neutrophil infiltration) after hemorrhagic shock", "format": "in vivo", "details": "100 μg/kg intra-arterially, 3 h after resuscitation", "text": "as §1, with “C.” for “C. Mice were anesthetized with pentobarbital (80 mg/kg) intraperitoneally and prepared for hemorrhagic shock, as previously described.”\nMyeloperoxidase assay. Myeloperoxidase (MPO) activity was determined as an index of neutrophil accumulation. […] The rate of change in absorbance was measured by spectrophotometry at 650 nm. MPO activity was defined as the quantity of enzyme degrading […] of hydrogen peroxide/min at 37° C. and expressed in units per 100 mg weight of tissue."}, "[4]": {"test_system": "AMPKα1 wild-type (WT) and knockout (KO) mice", "assay": "Murine hemorrhagic shock model: mean arterial blood pressure and heart rate", "format": "in vivo", "text": "Murine model of hemorrhagic shock. The experiments conformed to the Guide for the Care and Use of Laboratory Animals published by the US National Institutes of Health (Eighth edition, 2011) and had the approval of the Institutional Animal Care and Use Committee. Homozygous AMPKα1 wild-type (WT) and AMPKα1 knockout (KO) mice were established on a C57/BL6 genetic background by the crossbreeding (>10 generations) of a breeding pair provided by Dr. Benoit Viollet of the University of Paris Descartes (Paris, France). For these experiments, female AMPKα1 WT and KO mice were generated by a breeding scheme utilizing heterozygous mutant mice. Female mice were used at random stages of the estrous cycle at the age of 3 to 5 months and assigned to the different experimental groups after routine genotyping by quantitative polymerase chain reaction. All mice were allowed free access to water and a maintenance diet in a 12-h light/dark cycle, with room temperature at 21±2° C. Mice were anesthetized with pentobarbital (80 mg/kg) intraperitoneally and prepared for hemorrhagic shock, as previously described. Briefly, either the left or right femoral artery was cannulated using PE-10 tubing, and connected to a blood pressure transducer (PowerLab, AD Instruments, Colorado Springs, CO) for measurement of mean arterial blood pressure (MABP) and heart rate (HR). Blood was removed from the femoral artery over a 10-minute period until MABP reached 30±5 mmHg. The mice were kept in this MABP range for 90 min by additional blood removal or small volume transfusion. At the end of the shock period, mice were resuscitated by infusing their shed blood and twice that amount in Lactated Ringer's solution over a 10-min period. AMPKα1 WT and KO mice were also randomly assigned to two treatment groups: a vehicle group (distilled water, 500 μL) and a humanin-G (100 μg/kg) group. Drug treatment was given intra-arterially as single bolus right before resuscitation, and at 1 and 2 hours thereafter. […] Mice were monitored for 3 hours after resuscitation for cardiovascular parameters. […]"}, "[5]": {"test_system": "AMPKα1 wild-type (WT) and knockout (KO) mice", "assay": "ATP assay in heart tissue after hemorrhagic shock", "format": "in vivo", "details": "100 μg/kg intra-arterially, 3 h after resuscitation", "text": "as §1\nATP assay. ATP levels were measured in heart tissue homogenates using a commercially available ATP assay kit (BioVision, Milpitas, CA) and following the protocol recommended by the manufacturer."}, "[6]": {"test_system": "AMPKα1 wild-type (WT) and knockout (KO) mice", "assay": "Transmission electron microscopy of heart tissue mitochondria after hemorrhagic shock", "format": "in vivo", "details": "100 μg/kg intra-arterially", "text": "as §1, with “C.” for “C. Mice were anesthetized with pentobarbital (80 mg/kg) intraperitoneally and prepared for hemorrhagic shock, as previously described.”\nTransmission electron microscopy. […] The total number of mitochondria, and the presence of abnormal mitochondria with loose matrix, fragmented cristae and membranes were determined in four consecutive cells in four different sections for each animal by using NIH ImageJ analysis."}, "[7]": {"test_system": "STAT3", "assay": "Western blot of STAT3, pSTAT3(Ser727), pSTAT3(Tyr705) in cytosol and nuclear extracts of lung and heart", "format": "in vivo, mice", "text": "(§2) Murine model of hemorrhagic shock. The experiments conformed to the Guide for the Care and Use of Laboratory Animals published by the US National Institutes of Health (Eighth edition, 2011) and had the approval of the Institutional Animal Care and Use Committee. Homozygous AMPKα1 wild-type (WT) and AMPKα1 knockout (KO) mice were established on a C57/BL6 genetic background by the crossbreeding (>10 generations) of a breeding pair provided by Dr. Benoit Viollet of the University of Paris Descartes (Paris, France). For these experiments, female AMPKα1 WT and KO mice were generated by a breeding scheme utilizing heterozygous mutant mice. Female mice were used at random stages of the estrous cycle at the age of 3 to 5 months and assigned to the different experimental groups after routine genotyping by quantitative polymerase chain reaction. All mice were allowed free access to water and a maintenance diet in a 12-h light/dark cycle, with room temperature at 21±2° C. Mice were anesthetized with pentobarbital (80 mg/kg) intraperitoneally and prepared for hemorrhagic shock, as previously described. Briefly, either the left or right femoral artery was cannulated using PE-10 tubing, and connected to a blood pressure transducer (PowerLab, AD Instruments, Colorado Springs, CO) for measurement of mean arterial blood pressure (MABP) and heart rate (HR). Blood was removed from the femoral artery over a 10-minute period until MABP reached 30±5 mmHg. The mice were kept in this MABP range for 90 min by additional blood removal or small volume transfusion. At the end of the shock period, mice were resuscitated by infusing their shed blood and twice that amount in Lactated Ringer's solution over a 10-min period. AMPKα1 WT and KO mice were also randomly assigned to two treatment groups: a vehicle group (distilled water, 500 μL) and a humanin-G (100 μg/kg) group. Drug treatment was given intra-arterially as single bolus right before resuscitation, and at 1 and 2 hours thereafter. Dose of humanin was chosen according to reported pharmacokinetics and pharmacodynamics of the drug in the mice. Mice were monitored for 3 hours after resuscitation for cardiovascular parameters. […] Mice were sacrificed at 3 hours after resuscitation and blood, heart and lungs were collected for biochemical assays.\nCytosol and nuclear extracts. Heart and lung tissues were homogenized using a Polytron homogenizer (Brinkman Instruments, West Orange, NY) in a buffer containing 0.32 M sucrose, 10 mM TrisHCl (pH 7.4), 1 mM EGTA, 2 mM EDTA, 5 mM NaN3, 10 mM β-mercaptoethanol, […], 0.15 mM pepstatin A, 0.2 mM phenylmethanesulfonyl fluoride, 50 mM NaF, 1 mM sodium orthovanadate, and 0.4 nM microcystin. Samples were centrifuged at 1,000 g for 10 min at […] and the supernatants collected as cytosol extracts. The pellets were then solubilized in Triton buffer (1% Triton X-100, 250 mM NaCl, 50 mM Tris HCl at pH 7.5, 3 mM EGTA, 3 mM EDTA, 0.1 mM phenylmethanesulfonyl fluoride, 0. 1 mM sodium orthovanadate, 10% glycerol, 2 mM p-nitrophenyl phosphate, 0.5% NP-40, and […]). The lysates were centrifuged at 15,000 g for 30 min at […] and the supernatant collected as nuclear extracts. The Bradford protein assay was used for quantitative determination of total proteins.\nWestern blot analysis. Cytosol and nuclear content of STAT3 and its two phosphorylated active forms pSTAT3(Tyr705) and pSTAT3(Ser727), and mitochondrial content of pSTAT3(Ser727) and the Complex I subunit GRIM-19 (gene associated with retinoid-IFN-induced mortality) were determined by immunoblotting analyses. Extracts were heated at 70° C. in equal volumes of ×4 Protein Sample Loading Buffer. Twenty μg of protein were loaded per lane on a 10% Bis-Tris gel. Proteins were separated electrophoretically and transferred to nitrocellulose membranes. […]"}, "[8]": {"test_system": "STAT3 and Complex I subunit GRIM-19", "assay": "Western blot of pSTAT3(Ser727) and GRIM-19 in mitochondrial extracts of lung and heart", "format": "in vivo, mice", "text": "as §2\nMitochondrial extracts. Mitochondria were isolated from hearts and lungs using a commercially available mitochondria isolation kit (TermoFisher Scientific, Waltham, MA) and following the protocol recommended by the manufacturer. The Bradford protein assay was used for quantitative determination of total proteins.\nWestern blot analysis. Cytosol and nuclear content of STAT3 and its two phosphorylated active forms pSTAT3(Tyr705) and pSTAT3(Ser727), and mitochondrial content of pSTAT3(Ser727) and the Complex I subunit GRIM-19 (gene associated with retinoid-IFN-induced mortality) were determined by immunoblotting analyses. Extracts were heated at 70° C. in equal volumes of ×4 Protein Sample Loading Buffer. Twenty μg of protein were loaded per lane on a 10% Bis-Tris gel. Proteins were separated electrophoretically and transferred to nitrocellulose membranes. Immunoblotting was performed using the IBind Flex Western System (Thermo Fischer Scientific, Waltham, MA) that applies sequential lateral flow to perform blocking and antibody binding. […] For all immunoblotting, the Odyssey LI-COR scanner and software (LI-COR Biotechnology, Lincoln, NE) were used for detection and quantitative analysis."}, "[9]": {"test_system": "AMPKα1 wild-type (WT) and knockout (KO) mice", "assay": "Plasma levels of humanin by competitive ELISA after hemorrhagic shock", "format": "in vivo", "details": "100 μg/kg intra-arterially, 3 h after resuscitation", "text": "as §1\nPlasma levels of humanin. Endogenous plasma levels of humanin were measured by competitive ELISA ([…], MyBioSource, San Diego, CA) using the protocol recommended by the manufacturer."}, "[10]": {"details": "heart, WT mice, 100 μg/kg intra-arterially"}, "[11]": {"details": "lung, mice of both genotypes, 100 μg/kg intra-arterially"}, "[12]": {"details": "heart mitochondria, WT or KO mice, compared to vehicle-treated mice"}}}
{"substance": "[Gly14]-Humanin (MAPRGFSCLLLLTGEIDLPVKRRA) [humanin-G, synthetic humanin analogue, serine at position 14 replaced by glycine]", "values": [{"measurement": "lung architecture (histology)", "setting": "[1]", "value": "significantly improved"}, {"measurement": "plasma levels of cytokines (IL-1β, IL-6, IL-10, IL-17, KC, TNFα)", "setting": "[2]", "value": "did not affect"}, {"measurement": "lung MPO activity", "setting": "[3]", "value": "significantly reduced"}, {"measurement": "MABP recovery to baseline", "setting": "[4]; AMPKα1 KO mice, 100 μg/kg intra-arterially at resuscitation, 1 h, 2 h", "value": "did not completely recover to baseline"}, {"measurement": "mean arterial blood pressure (MABP)", "setting": "[4]; AMPKα1 WT and KO female mice, 100 μg/kg intra-arterially at resuscitation and 1 h and 2 h thereafter, compared to vehicle-treated groups", "value": "significantly ameliorated"}, {"measurement": "heart rate (HR)", "setting": "[4]; AMPKα1 WT or KO mice, 100 μg/kg intra-arterially, compared to vehicle-treated groups", "value": "did not affect"}, {"measurement": "cardiac ATP levels", "setting": "[5]", "value": "increased"}, {"measurement": "cardiac mitochondrial damage", "setting": "[6]; AMPKα1 KO mice, 3 h after resuscitation", "value": "reduced"}, {"measurement": "cardiac mitochondrial structural changes", "setting": "[6]; AMPKα1 WT mice after hemorrhagic shock", "value": "No abnormal structural changes"}, {"measurement": "cytosolic or nuclear expression of pSTAT3(Ser727) in heart", "setting": "[7]; [10]", "value": "did not affect"}, {"measurement": "cytosolic or nuclear expression of pSTAT3(Tyr705) in heart", "setting": "[7]; [10]", "value": "did not affect"}, {"measurement": "total levels of STAT3 in heart", "setting": "[7]; heart, across experimental groups, WT or KO mice", "value": "no difference"}, {"measurement": "total levels of STAT3 in lung", "setting": "[7]; lung, across experimental groups, WT or KO mice", "value": "no difference"}, {"measurement": "pSTAT3(Ser727) in lung cytosol and nucleus", "setting": "[7]; [11]", "value": "upregulated only in the nucleus"}, {"measurement": "pSTAT3(Tyr705) in lung cytosol and nucleus", "setting": "[7]; [11]", "value": "further upregulated"}, {"measurement": "mitochondrial expression of GRIM-19 in heart", "setting": "[8]; [12]", "value": "did not affect"}, {"measurement": "mitochondrial expression of pSTAT3(Ser727) in heart", "setting": "[8]; [12]", "value": "did not affect"}, {"measurement": "mitochondrial expression of pSTAT3(Ser727) in lung", "setting": "[8]; isolated lung mitochondria, WT and KO mice, 100 μg/kg intra-arterially", "value": "slightly, but not significantly, increased"}, {"measurement": "GRIM-19 expression in lung mitochondria", "setting": "[8]; KO mice, 100 μg/kg intra-arterially", "value": "did not affect"}, {"measurement": "GRIM-19 expression in lung mitochondria", "setting": "[8]; WT mice, 100 μg/kg intra-arterially", "value": "restored levels of GRIM-19 similarly to basal levels"}, {"measurement": "plasma humanin levels compared to vehicle-treated groups", "setting": "[9]; AMPKα1 WT and KO mice", "value": "not statistically different"}, {"measurement": "plasma levels of humanin compared to control mice", "setting": "[9]; AMPKα1 WT mice, but not KO mice", "value": "comparable with levels of control mice"}]}
